Results as given in patent publication US20250002524A1, “CAP ANALOGS HAVING AN ACYCLIC LINKER TO THE GUANINE DERIVATIVE NUCLEOBASE” (CureVac SE, priority 2021, published 2025).
Like-named read-outs stand apart in the source and are kept apart here.

Biological target: T1, T7 RNA polymerase (Escherichia phage T7, UniProt P00573)
T1 construct: purchased Thermo Fisher Scientific
Type: biochemical
From the text: A DNA sequence was introduced into a modified pUC19 derived vector backbone to comprise a 5′-UTR with a ribozyme cleavage site (the HSD17B4 5′ UTR), a 3′-UTR, a histone-stem-loop structure and a stretch of adenine nucleotides (A100), at the 3′-terminal end. The obtained plasmid DNA was transformed and propagated in bacteria using common protocols and plasmid DNA was extracted, purified, and enzymatically linearized using a restriction enzyme. The obtained linearized plasmid DNA was used for RNA in vitro transcription as outlined next to obtain the mRNA with the sequence shown in SEQ ID NO: 1.
Linearized plasmid DNA template (50 μg/ml) was transcribed at 37° C. for 3-5 hours in 80 mM HEPES/KOH, pH 7.5, 24 mM MgCl2, 2 mM spermidine, 40 mM DTT, 5 U/ml pyrophosphatase (Thermo Fisher Scientific), 200 U/ml RiboLock RNase inhibitor (Thermo Fisher Scientific), 5000 U/ml T7 RNA polymerase (Thermo Fisher Scientific).
The non-modified and modified nucleotide mixture was sequence-optimized (herein referred to as sequence-optimized IVT-mix) preferably in accordance with a procedure as described in WO2015/188933. Example 1. In short, the sequence-optimized IVT-mix comprised the four ribonucleoside triphosphates (NTPs) GTP, ATP, CTP and (modified) UTP in a sequence optimized ratio, wherein the fraction of each of the four ribonucleoside triphosphates in the sequence-optimized IVT-mix corresponded to the fraction of the respective nucleotide in the mRNA molecule to be synthetized, a buffer, a DNA template, and an RNA polymerase. Accordingly, for mRNAs i) and ii) as set out above, the concentrations of the nucleotides were 0.42 mM ATP, 0.57 mM CTP, 0.28 mM UTP, and 0.5 mM GTP (all Thermo Fisher Scientific).
Following RNA in vitro transcription, linear DNA templates were removed by Pulmozyme (Ratiopharm) (2500 U/ml, 3.2 mM CaCl2, 30 min at 37° C.). The obtained mRNAs i) and ii) as well as the mRNAs used in example 3, Table Ex-6; example 4, Table Ex-7; and example 5, FIG. 5 were purified using RP-HPLC (PureMessenger®; according to WO2008/077592). The obtained mRNAs used in example 3, Table Ex-8; example 4, Table Ex-9; and example 5, FIG. 6, were purified using Monarch RNA cleanup kit or Qiagen RNeasy mini kit according to the protocol of the manufacturer and used for dsRNA determination, capping analysis and in vitro expression experiments (example 5).
The capping efficacy can be analyzed by an HPLC assay of a 5′ fragment of mRNAs obtained according to the protocol of example 2. Thus, the peaks obtained in such an HPLC assay are indicative of i) correctly capped mRNA, ii) capped mRNA lacking a single nucleotide G (which is a typical side product if T7 RNA-polymerase is used), iii) uncapped mRNA and iv) further products of unknown structure. 5′ fragments for this kind of analysis are typically 15 to 20 nucleotides in length.
In order to provide fragments of a length of 18 nucleotides (assuming that the Cap-nucleotide is present, the fragment is 18 nucleotides long; for uncapped mRNAs, the fragment is accordingly 17 nucleotides long) for HPLC analysis, the mRNAs i) and ii) obtained in example 2 were first cleaved at the above-mentioned 5′ ribozyme cleavage site using a ribozyme designed to cleave at the relevant position. The ribozyme reaction contained 150 μM of the respective mRNA, 150 μM of the ribozyme, 50 mM NaCl and 0.625 mM EDTA in a total reaction volume of 120 μL. For the annealing reaction, the mixture was incubated in a PCR cycler for 3 min at 95° C., followed by a cool down ramp of 0.1° C. per second to a final temperature of 25° C., with a final incubation of 10 min at 25° C. After addition of 30 μL of a 200 mM MgCl2 solution buffered with 250 mM TRIS/HCl (pH 7.5), the reaction mix was incubated at 25° C. for 1 h. The reaction was stopped by addition of 24 μL of a 250 mM EDTA solution. RNA-only and Ribozyme-only controls were prepared per RNA and ribozyme, respectively.

[1] = Table Ex-6, mRNA capped with named cap analog (2.0 mM cap, 0.5 mM GTP), RP-HPLC purified mRNA
[2] = Table Ex-8, mRNA capped with 15.23 mM cap0 analog, N1-Methyl-pseudouridine, purified with Monarch RNA cleanup kit or Qiagen RNeasy mini kit

T1 sequence (P00573 whole entry): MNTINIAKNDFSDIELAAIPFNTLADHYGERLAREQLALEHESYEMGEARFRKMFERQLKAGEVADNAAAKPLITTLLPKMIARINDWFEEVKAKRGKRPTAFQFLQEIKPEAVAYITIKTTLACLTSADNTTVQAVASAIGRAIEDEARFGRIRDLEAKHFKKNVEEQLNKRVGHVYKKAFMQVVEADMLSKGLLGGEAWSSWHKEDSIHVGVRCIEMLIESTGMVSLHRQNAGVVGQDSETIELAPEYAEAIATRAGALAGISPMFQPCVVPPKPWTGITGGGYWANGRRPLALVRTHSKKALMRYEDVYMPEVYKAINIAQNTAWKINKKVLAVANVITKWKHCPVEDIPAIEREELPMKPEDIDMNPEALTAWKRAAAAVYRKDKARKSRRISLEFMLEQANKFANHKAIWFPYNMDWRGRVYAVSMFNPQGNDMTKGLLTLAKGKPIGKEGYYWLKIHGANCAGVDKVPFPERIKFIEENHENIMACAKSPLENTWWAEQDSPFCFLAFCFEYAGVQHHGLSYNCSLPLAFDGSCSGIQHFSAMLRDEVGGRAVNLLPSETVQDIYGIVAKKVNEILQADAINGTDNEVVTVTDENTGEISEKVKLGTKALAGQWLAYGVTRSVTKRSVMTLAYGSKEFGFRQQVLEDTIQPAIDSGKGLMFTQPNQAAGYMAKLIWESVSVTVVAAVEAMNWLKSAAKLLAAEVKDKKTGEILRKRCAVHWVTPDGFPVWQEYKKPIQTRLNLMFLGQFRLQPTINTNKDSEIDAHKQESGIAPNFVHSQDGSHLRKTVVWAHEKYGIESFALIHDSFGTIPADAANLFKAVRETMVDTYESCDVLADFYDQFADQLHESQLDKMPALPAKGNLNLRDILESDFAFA

C[n+]1cn(C2OC(COP(=O)(O)OP(=O)([O-])OP(=O)(O)OCC3OC(n4cnc5c(=O)[nH]c(N)nc54)C(O)C3O)C(O)C2O)c2nc(N)[nH]c(=O)c21 (stereo not drawn) [mCap, m7G(5′)ppp(5′)G, reference compound]
Relative peak area Capped RNA minus G [1]: 8.6% | Relative peak area Uncapped RNA [1]: 19.8% | Relative peak area Unidentified peaks [1]: 10.1% | Relative peak area Correctly capped RNA (Table Ex-6, mRNA capped with named cap analog (2.0 mM cap, 0.5 mM GTP), RP-HPLC purified mRNA, 5′ fragment, UV 260 nm): 61.5% | Relative peak area Capped RNA minus G [2]: 12.2% | Relative peak area Correctly capped RNA [2]: 63.3% | Relative peak area Uncapped RNA [2]: 20.3% | Relative peak area Unidentified peaks [2]: 4.2%

C[n+]1cn(C[S+]([O-])CCCP(=O)(O)OP(=O)([O-])OP(=O)(O)OC[C@H]2O[C@@H](n3cnc4c(=O)[nH]c(N)nc43)[C@H](O)[C@@H]2O)c2nc(N)[nH]c(=O)c21 (stereo partly drawn) [Phosphonate Variant 2]
Relative peak area Capped RNA minus G [2]: 6.3% | Relative peak area Correctly capped RNA [2]: 76.9% | Relative peak area Uncapped RNA [2]: 15.0% | Relative peak area Unidentified peaks [2]: 1.8%

C[n+]1cn(CC[S+]([O-])CCP(=O)(O)OP(=O)([O-])OP(=O)(O)OC[C@H]2O[C@@H](n3cnc4c(=O)[nH]c(N)nc43)[C@H](O)[C@@H]2O)c2nc(N)[nH]c(=O)c21 (stereo partly drawn) [Phosphonate Variant 5]
Relative peak area Capped RNA minus G [2]: 4.3% | Relative peak area Correctly capped RNA [2]: 77.1% | Relative peak area Uncapped RNA [2]: 13.1% | Relative peak area Unidentified peaks [2]: 5.5%

C[n+]1cn(CCSCP(=O)(O)OP(=O)([O-])OP(=O)(O)OC[C@H]2O[C@@H](n3cnc4c(=O)[nH]c(N)nc43)[C@H](O)[C@@H]2O)c2nc(N)[nH]c(=O)c21 [Phosphonate Variant 10]
Relative peak area Capped RNA minus G [2]: 23.4% | Relative peak area Correctly capped RNA [2]: 63.0% | Relative peak area Uncapped RNA [2]: 8.7% | Relative peak area Unidentified peaks [2]: 4.9%

C[n+]1cn(CCCS(=O)(=O)CCP(=O)(O)OP(=O)([O-])OP(=O)(O)OC[C@H]2O[C@@H](n3cnc4c(=O)[nH]c(N)nc43)[C@H](O)[C@@H]2O)c2nc(N)[nH]c(=O)c21 [Phosphonate Variant 9]
Relative peak area Capped RNA minus G [2]: 4.4% | Relative peak area Correctly capped RNA [2]: 73.4% | Relative peak area Uncapped RNA [2]: 15.7% | Relative peak area Unidentified peaks [2]: 6.5%

C[n+]1cn(CCCOP(=O)(O)OP(=O)([O-])OP(=O)(O)OC[C@H]2O[C@@H](n3cnc4c(=O)[nH]c(N)nc43)[C@H](O)[C@@H]2O)c2nc(N)[nH]c(=O)c21 [Propylene Cap]
Relative peak area Capped RNA minus G [2]: 21.6% | Relative peak area Correctly capped RNA [2]: 64.7% | Relative peak area Uncapped RNA [2]: 12.3% | Relative peak area Unidentified peaks [2]: 1.4%

C[n+]1cn(CCS(=O)(=O)CCP(=O)(O)OP(=O)([O-])OP(=O)(O)OC[C@H]2O[C@@H](n3cnc4c(=O)[nH]c(N)nc43)[C@H](O)[C@@H]2O)c2nc(N)[nH]c(=O)c21 [Phosphonate Variant 6]
Relative peak area Capped RNA minus G [2]: 4.2% | Relative peak area Correctly capped RNA [2]: 75.5% | Relative peak area Uncapped RNA [2]: 14.9% | Relative peak area Unidentified peaks [2]: 5.4%

C[n+]1cn(CCS(=O)(=O)CP(=O)(O)OP(=O)([O-])OP(=O)(O)OC[C@H]2O[C@@H](n3cnc4c(=O)[nH]c(N)nc43)[C@H](O)[C@@H]2O)c2nc(N)[nH]c(=O)c21 [Phosphonate Variant 12]
Relative peak area Capped RNA minus G [2]: 8.6% | Relative peak area Correctly capped RNA [2]: 75.5% | Relative peak area Uncapped RNA [2]: 12.2% | Relative peak area Unidentified peaks [2]: 3.7%
